# According to publication PMC8704432, “Isolation, Structure Determination of Sesquiterpenes from Neurolaena lobata and Their Antiproliferative, Cell Cycle Arrest-Inducing and Anti-Invasive Properties against Human Cervical Tumor Cells” (Pharmaceutics, 2021):
# Like-named read-outs stand apart in the source and are kept apart here.
# Legend:
# MRC-5 (human fibroblast) = test: Antiproliferative MTT assay, MRC-5; assay type: cell-based
# Protocol: (§1) Antiproliferative effect of the isolated compounds were determined in vitro using SiHa (HPV 16+), HeLa (HPV 18+), C33A (HPV negative) human cervical cell lines, NIH-3T3 mouse embryonic and MRC-5 human fibroblast cells by means of MTT ([3-(4,5-dimethylthiazol-2-yl)-2,5-diphenyltetrazolium bromide]) assay. Briefly, a limited number of human cancer cells (5000/well for SiHa and HeLa cells, 10,000/well in case of C33A cells) were seeded onto a 96-well microplate and became attached to the bottom of the well overnight. On the second day of the procedure, the test substances were added in two concentrations (10.0 and 30.0 µM) in order to obtain preliminary data and then the compounds were applied in serial dilution (applied final concentrations were: 0.1, 0.3, 1.0, 3.0, 10.0, 30.0 µM). Further details of the experiment were described in ref. [30]. All in vitro experiments were carried out on two 96-well dishes with at least five parallel wells [31].
# [1] = tested on: HeLa (HPV 18+) human cervical cell line; test: Antiproliferative MTT assay, HeLa; assay type: cell-based; settings: for IC50: read-out: Calculated IC50 Values (μM) [95% CI]; for inhibition at 10 µM / inhibition at 30 µM: read-out: Growth Inhibition Values (%) ± SEM
# Protocol: as §1
# [2] = tested on: C33A (HPV negative) human cervical cell line; test: Antiproliferative MTT assay, C33A; assay type: cell-based; settings: for inhibition at 10 µM / inhibition at 30 µM: read-out: Growth Inhibition Values (%) ± SEM
# Protocol: as §1
# [3] = tested on: SiHa (HPV 16+) human cervical cell line; test: Antiproliferative MTT assay, SiHa; assay type: cell-based; settings: for IC50: read-out: Calculated IC50 Values (μM) [95% CI]; for inhibition at 10 µM / inhibition at 30 µM: read-out: Growth Inhibition Values (%) ± SEM
# Protocol: as §1
# [4] = tested on: NIH/3T3 (mouse embryonic fibroblast); test: Antiproliferative MTT assay, NIH/3T3; assay type: cell-based
# Protocol: as §1
# [5] = tested on: GLC4 human small cell lung carcinoma; design: method as in PMID 8657743; settings: GLC4 cells; read-out: IC50 (cytotoxicity); cited from earlier work
# [6] = tested on: COLO 320 human colorectal cancer cells; design: method as in PMID 8657743; settings: COLO 320 cells; read-out: IC50 (cytotoxicity); cited from earlier work
# [7] = NIH/3T3, MTT, read-out: Calculated IC50 Values (μM) [95% CI]
# [8] = Homo sapiens, C-33-A, read-out: Calculated IC50 Values (μM) [95% CI], C33A, MTT
# [9] = Homo sapiens, MRC5, MRC-5, MTT, read-out: Calculated IC50 Values (μM) [95% CI]
# [10] = Homo sapiens, MRC5, MRC-5, 10 μM, MTT, read-out: Growth Inhibition Values (%) ± SEM
# [11] = Homo sapiens, MRC5, MRC-5, 30 μM, MTT, read-out: Growth Inhibition Values (%) ± SEM
# [12] = Mus musculus, NIH3T3, NIH/3T3, MTT, read-out: Calculated IC50 Values (μM) [95% CI]
# [13] = Mus musculus, NIH3T3, NIH/3T3, 10 μM, MTT, read-out: Growth Inhibition Values (%) ± SEM
# [14] = Mus musculus, NIH3T3, NIH/3T3, 30 μM, MTT, read-out: Growth Inhibition Values (%) ± SEM
# [15] = Homo sapiens, MRC5, read-out: Growth Inhibition Values (%) ± SEM
# [16] = Mus musculus, NIH3T3, read-out: Growth Inhibition Values (%) ± SEM
Compound,"inhibition at 10 µM ([1]; Homo sapiens, 10 μM) [%]","inhibition at 30 µM ([1]; Homo sapiens, 30 μM) [%]",IC50 ([1]; Homo sapiens) [µM],"IC50 [2, 8] [µM]","inhibition at 10 µM ([2]; Homo sapiens, C-33-A) [%]","inhibition at 30 µM ([2]; Homo sapiens, C-33-A) [%]","inhibition at 10 µM ([3]; Homo sapiens, 10 μM) [%]","inhibition at 30 µM ([3]; Homo sapiens, 30 μM) [%]",IC50 ([3]; Homo sapiens) [µM],also measured
"N.N.[Cl][Pt][Cl] [Cispl., cisplatin, reference compound]",–,–,–,–,–,–,–,–,–,"Growth Inhibition Values (%) ± SEM (MRC-5 (human fibroblast); MRC-5, 30 μM, MTT): 70.65 ± 1.34%; IC50 (MRC-5 (human fibroblast); MRC-5, MTT, read-out: Calculated IC50 Values (μM) [95% CI]): 5.77 µM; Growth Inhibition Values (%) ± SEM ([1]; 10 μM): 32.23 ± 1.16%; Growth Inhibition Values (%) ± SEM ([1]; 30 μM): 93.70 ± 0.82%; IC50 [1]: 12.1 µM; Growth Inhibition Values (%) ± SEM ([2]; C33A, 10 μM, MTT): 77.17 ± 1.21%; Growth Inhibition Values (%) ± SEM ([2]; C33A, 30 μM, MTT): 97.50 ± 0.13%; IC50 ([2]; C33A, MTT, read-out: Calculated IC50 Values (μM) [95% CI]): 5.85 µM; Growth Inhibition Values (%) ± SEM ([3]; 10 μM): 60.98 ± 0.92%; Growth Inhibition Values (%) ± SEM ([3]; 30 μM): 88.95 ± 0.53%; IC50 [3]: 4.29 µM; Growth Inhibition Values (%) ± SEM ([4]; NIH/3T3, 10 μM, MTT): 73.88 ± 0.46%; Growth Inhibition Values (%) ± SEM ([4]; NIH/3T3, 30 μM, MTT): 97.10 ± 0.15%; IC50 [4, 7]: 5.5 µM"
"C=C1C(=O)O[C@@H]2C[C@@H](C)C3=CC(=O)[C@](C)(O3)[C@H](OC(=O)CC(C)C)[C@@H](O)[C@@H]12 [Compound 1, 8β-Hydroxy-9α-isovaleroyloxycalyculatolide]",20.4 ± 0.62,81.8 ± 1.7,16.8,5.89,90 ± 2.54,91.79 ± 0.22,77.93 ± 0.56,92.1 ± 0.73,4.86,–
"COC[C@@H]1C(=O)O[C@@H]2C[C@@H](C)C3=CC(=O)[C@](C)(O3)[C@H](O)[C@@H](OC(=O)CC(C)C)[C@@H]12 [Compound 2, Lobatolide A]",< 20,21.6 ± 2.42,–,–,< 20,36.6 ± 2.95,< 20,< 20,–,–
"C=C1C(=O)O[C@@H]2/C=C(/C)C3=CC(=O)[C@](C)(O3)[C@H](OC(=O)CC(C)C)[C@@H](O)[C@@H]12 [Compound 3, 8β-hydroxy-9α-isovaleroyloxyatripliciolide]",91.42 ± 0.34,96.6 ± 1.17,4.76,6.82,79.2 ± 3.33,94.46 ± 0.21,60.6 ± 1.58,78.8 ± 1.23,7.81,"IC50 (MRC-5 (human fibroblast); [9]): 6.67 µM; inhibition at 10 µM (MRC-5 (human fibroblast); [10]): 88.1 ± 1.22%; inhibition at 30 µM (MRC-5 (human fibroblast); [11]): 97.58 ± 0.1%; IC50 [4, 12]: 4.12 µM; inhibition at 10 µM [4, 13]: 92.96 ± 0.56%; inhibition at 30 µM [4, 14]: 98.15 ± 0.13%"
"C=C1C(=O)O[C@@H]2/C=C(/C)C3=CC(=O)[C@](C)(O3)[C@H](OC(C)=O)[C@@H](OC(=O)CC(C)C)[C@@H]12 [Compound 4, Lobatin C]",83.9 ± 1.8,90.1 ± 1.03,5.1,2.05,97.27 ± 0.18,97.19 ± 0.41,79.8 ± 1.47,94.62 ± 0.27,2.22,–
"COC[C@H]1C(=O)O[C@@H]2C[C@@H](C)/C=C\C(=O)[C@](C)(O)[C@H](OC(C)=O)[C@@H](OC(=O)CC(C)C)[C@H]21 [Compound 5, Lobatolide B]",< 20,63.9 ± 3.23,–,–,50.5 ± 3.49,90 ± 1.4,< 20,65.5 ± 2.52,–,–
"C=C1C(=O)O[C@@H]2[C@@H](CC3=C4[C@@H](C[C@@H](C)/C=C\C(=O)[C@](C)(O)[C@H](OC(C)=O)[C@H]4OC(=O)CC(C)C)OC3=O)[C@@H](C)C3=CC(=O)[C@](C)(O3)[C@H](O)[C@@H](OC(=O)CC(C)C)[C@@H]12 [Compound 7, Lobatolide D]",91.87 ± 0.72,96.44 ± 0.1,6,6.62,94.66 ± 0.19,95.18 ± 0.31,77.2 ± 1.04,93.5 ± 0.42,6.02,"IC50 (MRC-5 (human fibroblast); Homo sapiens, MRC5, read-out: Calculated IC50 Values (μM) [95% CI]): 15.4 µM; inhibition at 10 µM (MRC-5 (human fibroblast); [15]): < 20%; inhibition at 30 µM (MRC-5 (human fibroblast); [15]): 97.63 ± 0.27%; IC50 ([4]; Mus musculus, NIH3T3, read-out: Calculated IC50 Values (μM) [95% CI]): 5.68 µM; inhibition at 10 µM [4, 16]: 90.7 ± 1.2%; inhibition at 30 µM [4, 16]: 98.06 ± 0.19%"
"C=C1CC[C@@H](O)[C@]2(C)CC[C@@H](C(C)C)[C@H](O)[C@@H]12 [Compound 9, Volenol]",< 20,37.3 ± 2.65,–,–,< 20,26.7 ± 2.73,< 20,35.7 ± 1.29,–,–
"CC(C)[C@@H]1CC[C@@]2(C)C(=O)CCC(CO)=C[C@@H]12 [Compound 10, (+)-aphanamol I]",< 20,36.5 ± 1.55,–,–,< 20,< 20,< 20,< 20,–,–
C=C1C(=O)O[C@@H]2/C=C(/C)C3=CC(=O)[C@](C)(O3)[C@H](O)[C@@H](OC(=O)CC(C)C)[C@@H]12 [Lobatin B],–,–,–,–,–,–,–,–,–,IC50 [5]: 0.6 µM; IC50 [6]: 1.1 µM
"C=C1C(=O)O[C@@H]2C[C@@H](C)/C=C\C(=O)[C@@](C)(O)[C@H](OC(C)=O)[C@@H](OC(=O)CC(C)C)[C@@H]12 [Neu B, neurolenin B, reference compound]",94 ± 0.59,94.81 ± 0.37,< 1.4,–,98.29 ± 0.03,97.91 ± 0.15,88.73 ± 0.36,93.42 ± 0.33,< 1.4,"IC50 (MRC-5 (human fibroblast); [9]): 5.18 µM; inhibition at 10 µM (MRC-5 (human fibroblast); [10]): 94.26 ± 0.23%; inhibition at 30 µM (MRC-5 (human fibroblast); [11]): 97.46 ± 0.21%; IC50 [1]: 1.24 µM; IC50 ([2]; read-out: Calculated IC50 Values (μM) [95% CI], C33A, MTT): < 1.4 µM; IC50 [3]: 1.33 µM; IC50 [4, 12]: < 1.4 µM; inhibition at 10 µM [4, 13]: 98.11 ± 0.09%; inhibition at 30 µM [4, 14]: 98.02 ± 0.05%; IC50 [4, 7]: 1.31 µM; IC50 [5]: 1.1 µM; IC50 [6]: 1.2 µM"
